In general, EC50 refers to the concentration that produces a half-maximal response.

This assay relates to N-myc protein. The assay can be described thus: In-cell immunostaining assay for decrease of N-myc protein level in neuroblastoma cells. The class given is cell-based. The settings on record: human neuroblastoma cell lines (Kelly, IMR32, SK-N-BE(2)); treated overnight or up to 3 days; N-myc signal normalized over total protein; read-out: Activity (EC50 for decreasing N-myc protein level). As for the experimental part:
Human neuroblastoma cell lines were obtained from either Millipore Sigma, St. Louis, MO (Kelly cells) or American Type Culture Collection, Manassas, VA (IMR32 and SK-N-BE(2) cells). Cells were cultured in RPMI1640 medium (Corning, New York, NY), supplemented with 10% fetal bovine serum, 100 unit/mL penicillin and 100 μg/mL streptomycin (Corning, New York, NY) at 37 degree Celsius with 5% CO2 in air atmosphere. Cells cultured in flat clear bottom, black 96-well plates (Corning, New York, NY) were treated with different concentrations of a compound of the invention, which was dissolved in the culture media (200 μL/well), overnight or up to 3 days. Cells were fixed with 4% paraformaldehyde (in Phosphate-Buffered Saline or PBS, 100 μL/well) for 30 minutes at room temperature. Cells were briefly washed three times with PBS afterwards, and then treated with PBS containing 0.1% Triton X-100 (100 μL/well) for 30 minutes at room temperature. For […], cells were further treated with PBS containing 0.01% IRDye 700DX NHS Ester (LI-COR Biosciences, Lincoln, NE. 100 μL/well) for 30 minutes at room temperature. Cells were again washed three times with PBS, and then treated with a Tris-buffered saline solution with 0.1% Tween 20 (TBST) and 5% non-fat milk (50 μL/well) for 1 hour at room temperature. Cells were then treated with TBST with 5% non-fat milk (50 μL/well) containing a mouse anti N-Myc antibody (Clone B8.4.B, 1:500 dilution, Santa Cruz Biotechnology, Santa Cruz, CA), or a combination of a rabbit anti-Histone H3 (phospho S10) antibody (Clone EPR17246, 1:10000 dilution, abcam, Cambridge, MA) and a mouse anti-Histone H3 antibody (Clone 1G1, 1:250 dilution, Santa Cruz Biotechnology, Santa Cruz, CA) overnight at 4 degree Celsius in the dark. Cells were washed three times with TBST, and then treated with TBST with 5% non-fat milk (50 μL/well) containing an IRDye 800CW donkey anti-mouse IgG antibody (1:1000 dilution, LI-COR Biosciences, Lincoln, NE) for N-myc staining, or IRDye® 800CW donkey anti-rabbit IgG and IRDye 680RD donkey anti-mouse IgG antibodies (1:1000 dilution, LI-COR Biosciences, Lincoln, NE) for Histone H3 (phospho S10) and Histone H3 staining, incubated for 1 hour at room temperature in the dark. Cells were then washed four times with TBST and the plate was scanned using an Odyssey 9120 Imaging System (LI-COR Biosciences, Lincoln, NE). Signals for N-myc, total protein, Histone H3 (phospho S10), and Histone H3 were obtained from the images using the ImageStudio software (Version 4.0.21, LI-COR Biosciences, Lincoln, NE). Normalized signals for N-myc (over total protein), and Histone H3 (phospho S10) (over Histone H3) were plotted in Prism 7 software (GraphPad Software, San Diego, CA). A four-parameter dose-response curve was fitted using a variable slope model and the EC50 was calculated in Prism 7 software (GraphPad Software, San Diego, CA).

Where only a bound is given, the exact number is not on record here.

`Cc1nc(NC(=O)C2(C(=O)Nc3cc(C(F)(F)F)ccc3Cl)CC2)sc1C(=O)Nc1cc(C(F)(F)F)ccc1Cl` [SSTA-0250, N-(2-chloro-5-(trifluoromethyl)phenyl)-N-(5-((2-chloro-5-(trifluoromethyl)phenyl)carbamoyl)-4-methylthiazol-2-yl)cyclopropane-1,1-dicarboxamide]: the EC50 was 250 to 1000 nM.
In the case of `Cc1nc(NC(=O)C2(C(=O)Nc3cc(Cl)cc(C(F)(F)F)c3)CC2)sc1C(=O)Nc1cc(C(F)(F)F)ccc1Cl` [SSTA-0251, N-(3-chloro-5-(trifluoromethyl)phenyl)-N-(5-((2-chloro-5-(trifluoromethyl)phenyl)carbamoyl)-4-methylthiazol-2-yl)cyclopropane-1,1-dicarboxamide] it was 250 to 1000 nM; in that of `Cc1nc(NC(=O)C2(C(=O)Nc3cc(F)ccn3)CC2)sc1C(=O)Nc1cc(C(F)(F)F)ccc1Cl` [SSTA-0252, N-(5-((2-chloro-5-(trifluoromethyl)phenyl)carbamoyl)-4-methylthiazol-2-yl)-N-(4-fluoropyridin-2-yl)cyclopropane-1,1-dicarboxamide], more than 1000 nM.
Take `COCc1nc(NC(=O)C2(C(=O)Nc3ccc(Cl)c(F)c3)CC2)sc1C(=O)Nc1cc(C(F)(F)F)ccc1Cl` [SSTA-0262, N-(4-chloro-3-fluorophenyl)-N-(5-((2-chloro-5-(trifluoromethyl)phenyl)carbamoyl)-4-(methoxymethyl)thiazol-2-yl)cyclopropane-1,1-dicarboxamide]: the 50% effective concentration (EC50) is 250 to 1000 nM.
Consider `O=C(Nc1cc(C(F)(F)F)ccc1Cl)c1sc(NC(=O)C2(C(=O)Nc3cc(F)cc(F)c3)CC2)nc1C1CC1` [SSTA-0263, N-(5-((2-chloro-5-(trifluoromethyl)phenyl)carbamoyl)-4-cyclopropylthiazol-2-yl)-N-(3,5-difluorophenyl)cyclopropane-1,1-dicarboxamide], for which the EC50 was less than 250 nM.
With `O=C(Nc1cc(C(F)(F)F)ccc1Cl)c1sc(NC(=O)C2(C(=O)Nc3cc(F)cc(C(F)(F)F)c3)CC2)nc1C1CC1` [SSTA-0264, N-(5-((2-chloro-5-(trifluoromethyl)phenyl)carbamoyl)-4-cyclopropylthiazol-2-yl)-N-(3-fluoro-5-(trifluoromethyl)phenyl)cyclopropane-1,1-dicarboxamide] the figure was less than 250 nM; with “N-(5-((2-chloro-5-(trifluoromethyl)phenyl)carbamoyl)-4-methylthiazol-2-yl)-N-(3-fluoro-5-(trifluoromethyl)phenyl)cyclopropane-1,1-dicarboxamide [SSTA-0233]”, 250 to 1000 nM.

Source of the values: patent US12545654B2 (STEMSYNERGY THERAPEUTICS, INC., priority 2020, dated 2026).
